This is an account of results in US20070082892A1, “Benzotriazepine derivatives and their use as gastrin and cholecystokinin receptor ligands” (James Black Foundation Limited, priority 2003, published 2007).

One experiment deals with T1, gastrin (CCK2) receptor (Rattus norvegicus, UniProt P30553).
T1 construct: The oesophagus of immature rats (33-50 g, ca. 21 days old) was ligated; from tissue; host or cells: isolated whole stomach of immature rats
T1 sequence (P30553 1-452): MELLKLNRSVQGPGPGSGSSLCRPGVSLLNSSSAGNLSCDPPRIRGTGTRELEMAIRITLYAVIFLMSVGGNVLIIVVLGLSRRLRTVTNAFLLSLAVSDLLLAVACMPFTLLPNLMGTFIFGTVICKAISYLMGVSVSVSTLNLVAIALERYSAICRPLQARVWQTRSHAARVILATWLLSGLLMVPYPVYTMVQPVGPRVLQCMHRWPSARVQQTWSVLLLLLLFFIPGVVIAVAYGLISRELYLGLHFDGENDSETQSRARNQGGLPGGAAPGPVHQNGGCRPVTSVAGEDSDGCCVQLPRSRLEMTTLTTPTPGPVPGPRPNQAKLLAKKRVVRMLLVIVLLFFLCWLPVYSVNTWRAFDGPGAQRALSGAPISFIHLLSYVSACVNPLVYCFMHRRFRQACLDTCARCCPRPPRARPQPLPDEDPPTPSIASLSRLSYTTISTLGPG
In words: gastrin (CCK2) antagonist activity in an immature rat stomach assay (pentagastrin-stimulated acid secretion). To be noted: isolated immature rat stomach, 60 min incubation, cumulative pentagastrin dose-response curves; read-out: CCK2 pKB ± sem (converted).

For another experiment, the target named is T2, human CCK1-receptor (Homo sapiens, UniProt P32238).
T2 construct: expressed in transfected cells; host or cells: CHO-K1
T2 sequence (P32238 1-428): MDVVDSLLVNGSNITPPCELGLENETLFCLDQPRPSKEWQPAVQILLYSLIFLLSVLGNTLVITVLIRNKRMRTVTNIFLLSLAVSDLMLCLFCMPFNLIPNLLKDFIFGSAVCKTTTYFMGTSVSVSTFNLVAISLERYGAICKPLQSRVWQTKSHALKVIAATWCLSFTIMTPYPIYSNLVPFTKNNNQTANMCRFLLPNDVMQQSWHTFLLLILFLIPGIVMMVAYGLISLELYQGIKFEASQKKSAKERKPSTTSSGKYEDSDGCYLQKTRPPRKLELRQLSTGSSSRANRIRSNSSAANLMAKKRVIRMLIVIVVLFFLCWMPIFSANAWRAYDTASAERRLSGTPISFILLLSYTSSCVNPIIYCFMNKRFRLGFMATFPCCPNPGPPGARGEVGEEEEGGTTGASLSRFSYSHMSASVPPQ
Kind of experiment: CCK1 radioligand binding, displacement of [3H]-L-364,718 in CHO-K1 cells. To be noted: displacement of [3H]-L-364,718, CHO-K1 cells with cloned human CCK1 receptor; S.E.M's on pKi are ±≦0.1. The method, then: The CCK1 activity of the ligands was assessed in a radioligand binding study, looking at the displacement of [^3H]-L-364,718 from sites in CHO-K1 cells into which the human CCK1-receptor sequence has been cloned. S.E.M's on pKi are ±≦0.1
(Loss of bound radioactivity is the signal in a displacement assay; it reports binding, not function.)

Bounds are passed on as bounds.

Description for gastrin (CCK2) receptor: Certain compounds of the examples were tested for gastrin (CCK2) antagonist activity in an immature rat stomach assay.
The oesophagus of immature rats (33-50 g, ca. 21 days old) was ligated at the level of the cardiac sphincter and the duodenal sphincter was cannulated. The stomach was excised and flushed with ca. 1 ml of unbuffered physiological saline solution. The fundus was punctured and cannulated. A further 4-5 ml of unbuffered solution was flushed through the stomach to ensure the preparation was not leaking. […] The stomach was continuously perfused at a rate of 1 ml min^−1 with unbuffered solution gassed with 100% O2 with the perfusate passing over an internally referenced pH-electrode fixed 12 cm above the stomach.
After 120 min of stabilisation the drugs were added directly to the serosal solution in the organ bath and after a further 60 min cumulative pentagastrin dose-response curves were started.

Take `CC(C)(C)C(=O)CN1C(=O)N(CCCC(=O)Nc2cccc(-c3nc(=O)o[nH]3)c2)C(=O)N(C2CCCCC2)c2ccccc21` [Example 19, 4-[1-Cyclohexyl-5-(3,3-dimethyl-2-oxo-butyl)-2,4-dioxo-1,2,4,5-tetrahydro-1,3,5-benzotriazepin-3-yl]-N-[3-(5-oxo-2,5-dihydro-[1,2,4]oxadiazol-3-yl)-phenyl]-butyramide]: the Kb at gastrin (CCK2) receptor was 87.1 nM.

On human CCK1-receptor, `CC(C)(C)C(=O)CN1C(=O)N(CC(=O)Nc2cccc(SCC(=O)O)c2)C(=O)N(C2CCCCCC2)c2ccccc21` [Example 11, (3-{2-[1-Cycloheptyl-5-(3,3-dimethyl-2-oxo-butyl)-2,4-dioxo-1,2,4,5-tetrahydro-1,3,5-benzotriazepin-3-yl]-acetylamino}-phenylsulfanyl)-acetic acid] gave a Ki of 251 nM. For the same molecule, the Kb on gastrin (CCK2) receptor is 4.47 nM.

At human CCK1-receptor, `CN(c1cccc(NC(=O)CN2C(=O)N(CC(=O)C(C)(C)C)c3ccccc3N(C3CCCCC3)C2=O)c1)c1nn[nH]n1` [Example 16, 2-[1-Cyclohexyl-5-(3,3-dimethyl-2-oxo-butyl)-2,4-dioxo-1,2,4,5-tetrahydro-1,3,5-benzotriazepin-3-yl]-N-{3-[methyl-(2H-tetrazol-5-yl)-amino]-phenyl}-acetamide] had an inhibitory constant (Ki) of 2000 nM.

Regarding `O=C(CN1C(=O)N(CC(=O)N2CCCC2)c2ccccc2N(c2ccccc2)C1=O)Nc1ccc(F)cc1` [Example 2, 2-[2,4-Dioxo-1-(2-oxo-2-pyrrolidin-1-yl-ethyl)-5-phenyl-1,2,4,5-tetrahydro-1,3,5-benzotriazepin-3-yl]-N-(4-fluoro-phenyl)-acetamide], the Ki at human CCK1-receptor was 7940 nM. Besides, on gastrin (CCK2) receptor, the Kb was 2240 nM.

Turning to `CC(C)(C)C(=O)CN1C(=O)N(CC(=O)Nc2cccc(CC(=O)O)c2)C(=O)N(C2CCCCCC2)c2ccccc21` [Example 8, (3-{2-[1-Cycloheptyl-5-(3,3-dimethyl-2-oxo-butyl)-2,4-dioxo-1,2,4,5-tetrahydro-1,3,5-benzotriazepin-3-yl]-acetylamino}-phenyl)-acetic acid], the inhibition constant Ki at human CCK1-receptor was 3980 nM. The Kb at gastrin (CCK2) receptor is 43.7 nM.

`Cc1nc(-c2cccc(NC(=O)CN3C(=O)N(CC(=O)C(C)(C)C)c4ccccc4N(C4CCCCC4)C3=O)c2)cs1` [Example 15, 2-[1-Cyclohexyl-5-(3,3-dimethyl-2-oxo-butyl)-2,4-dioxo-1,2,4,5-tetrahydro-1,3,5-benzotriazepin-3-yl]-N-[3-(2-methyl-thiazol-4-yl)-phenyl]-acetamide] showed a Ki at human CCK1-receptor of 1580 nM.

On to `CC(C)(C)C(=O)CN1C(=O)N(CC(=O)Nc2cccc(CCC(=O)O)c2)C(=O)N(C2CCCCC2)c2ccccc21` [Example 14, 3-(3-{2-[1-Cyclohexyl-5-(3,3-dimethyl-2-oxo-butyl)-2,4-dioxo-1,2,4,5-tetrahydro-1,3,5-benzotriazepin-3-yl]-acetylamino}-phenyl)-propionic acid], for which, on human CCK1-receptor, the Ki was 2510 nM. Also, the Kb on gastrin (CCK2) receptor is 26.3 nM.

As to `O=C(CN1C(=O)N(CC(=O)N2CCCC2)c2ccccc2N(c2ccccc2)C1=O)Nc1cccc(C(=O)O)c1` [Example 3, 3-{2-[2,4-Dioxo-1-(2-oxo-2-pyrrolidin-1-yl-ethyl)-5-phenyl-1,2,4,5-tetrahydro-1,3,5-benzotriazepin-3-yl]-acetylamino}-benzoic acid], on human CCK1-receptor, the inhibition constant Ki is > 10000 nM. Moreover, on gastrin (CCK2) receptor, the Kb was 708 nM.

On human CCK1-receptor, `CNc1cccc(NC(=O)CN2C(=O)N(CC(=O)C(C)(C)C)c3ccccc3N(C3CCCCC3)C2=O)c1` [Example 13, 2-[1-Cyclohexyl-5-(3,3-dimethyl-2-oxo-butyl)-2,4-dioxo-1,2,4,5-tetrahydro-1,3,5-benzotriazepin-3-yl]-N-(3-methylamino-phenyl)-acetamide] showed a Ki of 2510 nM. The Kb at gastrin (CCK2) receptor is 19.5 nM.

Regarding `CC(C)(C)C(=O)CN1C(=O)N(CC(=O)Nc2cccc(-c3nc(=O)o[nH]3)c2)C(=O)N(C2CCCCCC2)c2ccccc21` [Example 12, 2-[1-Cycloheptyl-5-(3,3-dimethyl-2-oxo-butyl)-2,4-dioxo-1,2,4,5-tetrahydro-1,3,5-benzotriazepin-3-yl]-N-[3-(5-oxo-2,5-dihydro-[1,2,4]-oxadiazol-3-yl)-phenyl]-acetamide], the affinity at human CCK1-receptor, expressed as Ki, was 126 nM. Also, the Kb on gastrin (CCK2) receptor is 3.24 nM.

As to `CC(C)(C)C(=O)CN1C(=O)N(CC(=O)Nc2cccc(SCC(=O)OCc3ccccc3)c2)C(=O)N(C2CCCCCC2)c2ccccc21` [Example 10], affinity at human CCK1-receptor was put at a Ki of 100 nM. For the same molecule, the Kb at gastrin (CCK2) receptor is 6.76 nM.

By Ki is commonly meant the equilibrium dissociation constant of an inhibitor or competing ligand from its target.
